Experimental data reported in ChEMBL document CHEMBL5244229, “Thiazole-containing compounds as therapeutic targets for cancer therapy” (Eur J Med Chem, 2020).
Converted amounts (≈) assume the structure as drawn. Values belong to the compound of their own block, whether it stands above or below them.

How the values were obtained:
OVCAR-4 = assay: Cytotoxicity against human OVCAR-4 cells; format: functional
HCC 2998 = assay: Cytotoxicity against human HCC 2998 cells; format: functional
NCI-H460 [1] = assay: Cytotoxicity against human NCI-H460 cells; format: functional, cell-based
OVCAR-5 = assay: Cytotoxicity against human OVCAR-5 cells; format: functional
MCF7 [2] = assay: Cytotoxicity against human MCF7 cells; format: functional, cell-based
NCI-H226 = assay: Cytotoxicity against human NCI-H226 cells; format: functional
IGROV-1 = assay: Cytotoxicity against human IGROV-1 cells; format: functional
MDA-MB-231 [3] = assay: Antiproliferative activity against human MDA-MB-231 cells assessed as reduction in cell growth after 72 hrs; format: functional, cell-based; details: MDA-MB-231, 72 h
HeLa [4] = assay: Antiproliferative activity against human HeLa cells assessed as reduction in cell growth after 72 hrs; format: functional, cell-based
MDA-MB-231 [5] = assay: Antiproliferative activity against human MDA-MB-231 cell line assessed as cell growth inhibition by MTT assay; format: functional, cell-based
HeLa [6] = assay: Antiproliferative activity against human HeLa cells assessed as cell growth inhibition by MTT assay; format: functional, cell-based
A549 [7] = assay: Anticancer activity against human A549 cells assessed as reduction of cell viability at 25 micromol relative to control; format: functional; details: dose 25 µmol
A549 [8] = assay: Anticancer activity against human A549 cells assessed as reduction of cell viability at 100 micromol relative to control; format: functional; details: dose 100 µmol
Ovarian carcinoma cell = assay: Anticancer activity against human Ovarian carcinoma cell; format: functional
[9] = Anticancer activity against human Colon carcinoma cell; format: functional
[10] = Anticancer activity against human Melanoma tumor cell line; format: functional
Cytochrome P450 = assay: Inhibition of CYP450 in human liver microsomes; format: ADME, Microsome
Ca-Ski = assay: Anticancer activity against human Ca-Ski cells assessed as inhibition of cell growth; format: functional, cell-based
SK-NEP-1 = assay: Anticancer activity against human SK-NEP-1 cells assessed as inhibition of cell growth; format: functional, cell-based
[11] = Cytotoxicity against human HPDE cells assessed as induction of cell death at 5.51 uM; format: functional
HepG2 [12] = assay: Cytotoxicity against human HepG2 cells assessed as reduction in cell viability at 200 uM incubated for 24 hrs by MTT assay; format: functional, cell-based; details: HepG2, 24 h
MCF7 [13] = assay: Cytotoxicity against human MCF7 cells assessed as inhibition of cell growth; format: functional
NCI-H460 [14] = assay: Cytotoxicity against human NCI-H460 cells assessed as inhibition of cell growth; format: functional
SF-268 = assay: Cytotoxicity against human SF-268 cells assessed as inhibition of cell growth; format: functional
HepG2 [15] = assay: Cytotoxicity against human HepG2 cells assessed as reduction in cell viability at 200 uM incubated for 48 hrs by MTT assay; format: functional
HepG2 [16] = assay: Antiproliferative activity against human HepG2 cells assessed as reduction in cell viability; format: functional, cell-based
Hs-578T = assay: Antiproliferative activity against human Hs-578T cells assessed as reduction in cell viability; format: functional, cell-based
HeLa [17] = assay: Antiproliferative activity against human HeLa cells assessed as reduction in cell viability; format: functional, cell-based
HepG2 [18] = assay: Antiproliferative activity against human HepG2 cells assessed as reduction in cell viability incubated for 4 days by MTT assay; format: functional, cell-based; details: HepG2, 96 h
A-431 = assay: Antiproliferative activity against human A-431 cells assessed as reduction in cell viability incubated for 4 days by MTT assay; format: functional, cell-based; details: A-431, 96 h
SW-620 = assay: Antiproliferative activity against human SW620 cells assessed as reduction in cell viability incubated for 4 days by MTT assay; format: functional, cell-based; details: SW-620, 96 h
A549 [19] = assay: Antiproliferative activity against human A549 cells assessed as reduction in cell viability incubated for 4 days by MTT assay; format: functional, cell-based; details: A549, 96 h
[20] = Antiproliferative activity against human SK-RC-52 cells assessed as reduction in cell viability incubated for 4 days by MTT assay; format: functional, cell-based; details: SK-RC-52, 96 h
NCI-H460 [21] = assay: Antitumor activity against human NCI-H460 cells; format: functional, cell-based
NCI-H460 [22] = assay: Potency index, ratio of MKT-077 IC50 to test compound IC50 for antitumor activity against human NCI-H460 cells; format: functional
PC-3 [23] = assay: Cytotoxicity against human PC-3 cells; format: functional
PC-3 [24] = assay: Anticancer activity against human PC-3 cells; format: functional, cell-based
MCF7 [25] = assay: Induction of apoptosis in human MCF7 cells assessed as dead cells at 10 uM measured after 6 hrs by annexin V-FITC/propidium iodide staining based flow cytometry analysis (reference value: 5.14+/-0.44%); format: functional
HCT-8 = assay: Anticancer activity against human HCT-8 cells at 5 microg/ml relative to control; format: functional; details: dose 5 µg/ml
A549 [26] = assay: Antiproliferative activity against human A549 cells relative to control; format: functional
HCT-116 [27] = assay: Anticancer activity against human HCT-116 cells; format: functional, cell-based
MV4-11 [28] = assay: Anticancer activity against human MV4-11 cells; format: functional, cell-based
HCT-116 [29] = assay: Antiproliferative activity against human HCT-116 cells assessed as reduction in cell viability incubated for 24 hrs by Celltiter-Glo cell viability assay; format: functional, cell-based; details: HCT-116, 24 h
MV4-11 [30] = assay: Antiproliferative activity against human MV4-11 cells assessed as reduction in cell viability incubated for 24 hrs by Celltiter-Glo cell viability assay; format: functional, cell-based; details: MV4-11, 24 h
MCF7 [31] = assay: Antiproliferative activity against human MCF7 cells assessed as reduction in cell viability incubated for 24 hrs by Celltiter-Glo cell viability assay; format: functional, cell-based; details: MCF7, 24 h
BALB/3T3 = assay: Antiproliferative activity against mouse BALB/3T3 cells assessed as reduction in cell viability incubated for 24 hrs by Celltiter-Glo cell viability assay; format: functional, cell-based; details: BALB/3T3, 24 h
HepG2 [32] = assay: Anticancer activity against human HepG2 cells assessed as inhibition of cell proliferation at 50 uM measured after 24 hrs by MTT assay; format: functional, cell-based; details: HepG2, 24 h
A549 [33] = assay: Cytotoxicity against human A549 cells assessed as inhibition of cell growth by MTT assay; format: functional, cell-based
A549 [34] = assay: Antiproliferative activity against human A549 cells assessed as reduction in cell viability; format: functional, cell-based
[35] = Anticancer activity against human LNCaP/AR cells; format: functional, cell-based
A549 [36] = assay: Antiproliferative activity against human A549 cells; format: functional, cell-based
HEK293 = assay: Antiproliferative activity against human HEK293 cells; format: functional
HCT-116 [37] = assay: Antiproliferative activity against human HCT-116 cells assessed as reduction in cell viability; format: functional, cell-based
[38] = Antiproliferative activity against human HLF cells; format: functional
HCT-116 [39] = assay: Antiproliferative activity against human HCT-116 cells assessed as cell growth inhibition; format: functional
HepG2 [40] = assay: Anticancer activity against human HepG2 cells assessed as inhibition of cell proliferation at 25 uM measured after 24 hrs by MTT assay; format: functional, cell-based; details: HepG2, 24 h

IC50 (MDA-MB-231 [3]): 3.92 µg/mL (≈ 18 µM) | IC50 (HeLa [4]): 11.4 µg/mL (≈ 52.5 µM) | IC50 (MDA-MB-231 [5]): 3.92 µg/mL (≈ 18 µM) | IC50 (HeLa [6]): 11.4 µg/mL (≈ 52.5 µM)
SMILES: Cc1csc(N/N=C/c2ccccc2)n1

GI50 (Ovarian carcinoma cell): 250 nM
SMILES: Cc1nn2c(SCC(=O)Nc3nccs3)nc3ccccc3c2nc1=O
GI50 [9]: 450 nM | GI50 [10]: 480 nM

IC50 (HepG2 [16]): 5.08 µM | IC50 (HeLa [17]): 823 nM
SMILES: CNc1nc(CC(=O)N/N=C/c2coc3ccccc3c2=O)cs1
IC50 (Hs-578T): 4.95 µM

IC50 (NCI-H460 [21]): 6 nM
SMILES: CCN1C(=O)/C(=C2\Sc3ccccc3N2C)S/C1=N\[n+]1cccc2ccccc21.[I-]
Ratio IC50 (NCI-H460 [22]): 216.7

IC50 (PC-3 [24]): 24.2 µM
SMILES: Cc1c(-c2csc(N)n2)sc2sc(-c3csc(N)n3)c(-c3ccccc3)c12
Activity (PC-3 [23]): >30%

IC50 (A549 [34]): 860 nM
SMILES: COc1ccc(-c2csc(Nc3ccc(OC)cc3OC)n2)cc1

IC50 [35]: 380 nM
SMILES: CC(=O)c1cccc(-c2csc(N3CCOCC3)n2)c1

GI50 (HCT-116 [39]): 2350 nM
SMILES: Clc1nccc2c(-c3csc(-c4c[nH]c5ncc(Br)cc45)n3)c[nH]c12

IC50 (HepG2 [40]): 43 µM
SMILES: Cc1ccc(C2NC(=S)Nc3nc(Nc4ccc(S(N)(=O)=O)cc4)sc32)cc1 (stereo unspecified)

Further lines, the compound ahead of its results:

SMILES: Cc1cc(-c2nc3cc(F)ccc3s2)ccc1N
GI50 (OVCAR-4): < 100 nM | GI50 (HCC 2998): < 10 nM | GI50 (NCI-H460 [1]): < 10 nM | GI50 (OVCAR-5): < 100 nM | GI50 (MCF7 [2]): < 100 nM | GI50 (NCI-H226): < 10 nM | GI50 (IGROV-1): < 10 nM

SMILES: c1ccc(Nc2nc3ccc4cn[nH]c4c3s2)cc1
% viability reduction (A549 [7]): 72.1% | % viability reduction (A549 [8]): 78.8%

SMILES: Cc1ncc(C2=CCC3C4CC=C5CC(O)CCC5(C)C4CCC23C)s1 (stereo unspecified)
inhibition (INH) (Cytochrome P450): 72.1%

SMILES: CO[C@@H]1C[C@H](C[C@@H](C)[C@@H](OC(=O)C2CCCCN2C)C(C)C)CC[C@H]1OCC/N=c1\sc2cc(Cl)ccc2n1C (stereo partly specified)
IC50 (Ca-Ski): 8.3 µM | IC50 (SK-NEP-1): 9.6 µM

SMILES: C/C(=N/Nc1nc(-c2cc3ccccc3oc2=O)cs1)c1cc2ccccc2oc1=O
Activity [11]: 50%

SMILES: c1ccc2cc(-c3csc(N4CCCC4)n3)ccc2c1
IC50 (HepG2 [12]): 5 µM

SMILES: C/C(=N/NC(=O)c1sc(=S)n(-c2ccccc2)c1N)c1cccnc1
GI50 (MCF7 [13]): 42.8 nM | GI50 (NCI-H460 [14]): 94 nM | GI50 (SF-268): 94 nM

SMILES: CC1CCN(c2nc(-c3ccc4ccccc4c3)cs2)CC1
Activity (HepG2 [15]): 57%

SMILES: O=C(CCl)Nc1ccc2nc(SCC(=O)Nc3ccc(Br)cn3)sc2c1
IC50 (HepG2 [18]): 48 nM | IC50 (A-431): 20 nM | IC50 (SW-620): 4.3 nM | IC50 (A549 [19]): 44 nM | IC50 [20]: 1.2 nM

SMILES: COc1ccc(-c2nn(-c3ccccc3)cc2/C=N/Nc2nc(-c3ccc(Cl)cc3)cs2)cc1
Activity (MCF7 [25]): 25.61%

SMILES: Cc1cc(Cl)ccc1NC(=O)c1sc(-c2ccccc2Cl)nc1C(F)(F)F
Activity (HCT-8): 40% | Activity (A549 [26]): 48%

SMILES: O=S(=O)(Nc1ccc(-c2csc(N/N=C/c3ccc(N(CCCl)CCCl)cc3)n2)cc1)c1c(F)c(F)c(F)c(F)c1F
IC50 (HCT-116 [27]): 3.02 µg/mL (≈ 4.54 µM) | IC50 (MV4-11 [28]): 2170 nM | IC50 (HCT-116 [29]): 3.02 µg/mL (≈ 4.54 µM) | IC50 (MV4-11 [30]): 2.17 µg/mL (≈ 3.27 µM) | IC50 (MCF7 [31]): 3.42 µg/mL (≈ 5.15 µM) | IC50 (BALB/3T3): 3.2 µg/mL (≈ 4.82 µM)

SMILES: NS(=O)(=O)c1ccc(N2C(=O)CSC2c2ccc([N+](=O)[O-])cc2)cc1 (stereo unspecified)
IC50 (HepG2 [32]): 46 µM

SMILES: COC(=O)Nc1nc2cc(C(=O)c3cccs3)ccc2[nH]1 [NOCODAZOLE]
IC50 (A549 [33]): 1810 nM

SMILES: CCCCCCCC(=O)SCC/C=C/[C@@H]1CC(=O)NCc2nc(cs2)C2=N[C@@](C)(CS2)C(=O)N[C@@H](c2ccc(O)cc2)C(=O)O1
GI50 (A549 [36]): 1460 nM | GI50 (HEK293): > 100 µM | IC50 (HCT-116 [37]): 390 nM | GI50 [38]: > 100 µM
